Test results taken from patent US20230255953A1, “USE OF ROLUPERIDONE IN PREVENTING RELAPSE IN SCHIZOPHRENIA PATIENTS” (Minerva Neurosciences, Inc., priority 2022, published 2023).

Experiments:
Format in all cases: in vivo, human
[1] = test system: patients with negative symptoms of schizophrenia; experiment: Study #1 (MIN-101C03): Calgary Depression Scale for Schizophrenia; settings: Week 12 DB, ITT
Text: (§1) Phase 2b Study #1 (also referred to herein as “MIN-101C03”) was a Phase 2b, double-blind (“DB”), placebo-controlled, randomized, multicenter 12-week study to evaluate the efficacy, safety, and tolerability of Roluperidone in patients ≥18 years to ≤60 years with negative symptoms of schizophrenia, followed by a 24-week open-label (“OL”) extension. The primary objective of the study was to evaluate the efficacy of Roluperidone compared to placebo in improving the negative symptoms of schizophrenia as measured by the change from Baseline in the PANSS negative factor score of the PSM (“PANSS PSM”) over 12 weeks of treatment.
(§2) The study consisted of a pretreatment screening period of up to 28 days (including washout), a 12-week, DB, placebo-controlled period, and a 24-week OL period. Eligible patients (who were symptomatically stable for at least 3 months and had scores of at least 20 on the PANSS negative subscale score) were randomized in a 1:1:1 ratio to receive oral Roluperidone (a modified-release, “MR”, formulation) 32 mg QD, Roluperidone 64 mg QD, or placebo for 12 weeks. […] During the 24-week, OL treatment extension period, patients who were initially randomized to Roluperidone 32 mg or 64 mg continued on the same dose, while patients who were initially randomized to placebo crossed over to Roluperidone 32 mg or 64 mg in a 1:1 ratio.

[2] = test system: patients with negative symptoms of schizophrenia; experiment: Study #2 (MIN-101C07): rate of relapse and time to relapse; settings: for Patients who experienced relapse (%) / Patients who experienced relapse (number) / Days to relapse (Kaplan-Meier estimates), Mean / Days to relapse (Kaplan-Meier estimates), Median: ITT, MIN-101C07
Description: “Time to relapse” in the DB period is defined as the number of days from Day 1 to the date of early trial termination due to relapse. […] Treatment differences in time to relapse in the DB period were analyzed using a Cox-regression model with treatment group and Baseline PANSS total score as covariates. For the analysis of the OL period, this analysis was repeated to analyze treatment differences in time to relapse in the study. For the OL period analysis, patients who were not observed to relapse in the study were censored on the date on which they ended the study. Kaplan-Meier plots of time to relapse in the DB period, OL period, and in the study were generated.
In some embodiments, for any of the methods disclosed herein, a relapse refers to a patient who is terminated early during treatment (or a study trial) due to worsening of psychosis or an adverse event or generalized symptom in Table 1.
(§3) Study #2 (also referred to as “MIN101C07”) was a Phase 3, randomized, DB, placebo-controlled, parallel-group 12-week study to evaluate the efficacy and safety of Roluperidone in patients ≥18 years to ≤55 years with negative symptoms of schizophrenia, followed by a 40-week OL extension. The study consisted of a pretreatment screening period of up to 28 days (including an antipsychotic medication washout period), a 12-week, DB, placebo-controlled period, and a 40-week OL period. Eligible patients (with moderate to severe negative symptoms of schizophrenia and stable positive symptoms but without severe symptoms of suspiciousness, agitation, hostility, uncooperativeness, or poor impulse control) were randomized 1:1:1 to receive Roluperidone 32 mg QD, Roluperidone 64 mg QD (GR01/B formulation, see U.S. Pat. No. 11,464,744), or placebo, orally, for 12 weeks. […] During the 40-week OL treatment extension, patients who were initially randomized to Roluperidone 32 mg or 64 mg continued treatment with the same dose, while patients who were initially randomized to placebo crossed over to Roluperidone 32 mg or 64 mg in a 1:1 ratio.

[3] = test system: patients with negative symptoms of schizophrenia; experiment: Study #1 (MIN-101C03): Brief Assessment of Cognition in Schizophrenia; set-up: Change from Baseline LS Mean: Brief Assessment of Cognition in Schizophrenia Total Score / Change from Baseline LS Mean: Brief Assessment of Cognition in Schizophrenia Total Verbal Fluency: unit not given here; settings: Week 12 DB, ITT
Text: as §1, §2

[4] = test system: patients with negative symptoms of schizophrenia; experiment: Study #2 (MIN-101C07): Calgary Depression Scale for Schizophrenia; settings: Week 12 DB, ITT
Text: as §3

[5] = Placebo in DB to 32 mg in OL (N = 59), OL period
[6] = Roluperidone Total 32+64 mg (N = 341), DB period
[7] = Roluperidone Total 32+64 mg, DB period
[8] = Roluperidone throughout, Total (N = 211), OL period

1H-Isoindol-1-one,2-[ [1-[2-(4-fluorophenyl)-2-oxoethyl]-4-piperidinyl]methyl]-2,3-dihydro-, hydrochloride, hydrate (1:1:2) [Roluperidone]
Change from Baseline LS Mean: Calgary Depression Scale for Schizophrenia ([1]; 32 mg QD): −0.37 | Effect Size vs Placebo: Calgary Depression Scale for Schizophrenia ([1]; 32 mg QD): 0.25 | Change from Baseline LS Mean: Calgary Depression Scale for Schizophrenia ([1]; 64 mg QD): −0.71 | Effect Size vs Placebo: Calgary Depression Scale for Schizophrenia ([1]; 64 mg QD): 0.46 | Patients who experienced relapse (%) ([2]; 32 mg (N = 170), DB period): 11% | Patients who experienced relapse (number) ([2]; 32 mg (N = 170), DB period): 18 | Patients who experienced relapse (number) ([2]; 32 mg throughout the study (N = 107), OL period): 9 | Days to relapse (Kaplan-Meier estimates), Mean ([2]; 32 mg throughout the study, OL period): 232.4 days | Days to relapse (Kaplan-Meier estimates), Mean ([2]; 32 mg, DB period): 124.9 days | Days to relapse (Kaplan-Meier estimates), Median ([2]; 32 mg, DB period): 137.0 days | Patients who experienced relapse (%) ([2]; 64 mg (N = 171), DB period): 5% | Patients who experienced relapse (number) ([2]; 64 mg (N = 171), DB period): 9 | Patients who experienced relapse (number) ([2]; 64 mg throughout the study (N = 104), OL period): 10 | Days to relapse (Kaplan-Meier estimates), Mean ([2]; 64 mg throughout the study, OL period): 186.7 days | Days to relapse (Kaplan-Meier estimates), Mean ([2]; 64 mg, DB period): 82.1 days | Patients who experienced relapse (%) ([2]; Overall (N = 333), OL period): (8%) | Patients who experienced relapse (number) ([2]; Overall (N = 333), OL period): 25 | Days to relapse (Kaplan-Meier estimates), Mean ([2]; Overall, OL period): 254.1 days | Patients who experienced relapse (%) [2, 5]: (10%) | Patients who experienced relapse (number) [2, 5]: 6 | Days to relapse (Kaplan-Meier estimates), Mean ([2]; Placebo in DB to 32 mg in OL, OL period): 253.6 days | Patients who experienced relapse (number) ([2]; Placebo in DB to 64 mg in OL (N = 63), OL period): 0 | Patients who experienced relapse (number) ([2]; Placebo in DB to Roluperidone in OL, Total (N = 122), OL period): 6 | Days to relapse (Kaplan-Meier estimates), Mean ([2]; Placebo in DB to Roluperidone in OL, Total, OL period): 260.4 days | Patients who experienced relapse (%) [2, 6]: 8% | Patients who experienced relapse (number) [2, 6]: 27 | Days to relapse (Kaplan-Meier estimates), Mean [2, 7]: 127.8 days | Days to relapse (Kaplan-Meier estimates), Median [2, 7]: 137.0 days | Patients who experienced relapse (%) [2, 8]: (9%) | Patients who experienced relapse (number) [2, 8]: 19 | Days to relapse (Kaplan-Meier estimates), Mean ([2]; Roluperidone throughout, Total, OL period): 230.9 days | Relapse by study phase ([2]; Study #2 (n = 513), all subjects, Double-blind (12-weeks)): 6.8% | Relapse overall (discontinued because of positive symptoms worsening) ([2]; Study #2 (n = 513), Overall (over 52 weeks)): 11.7% | Relapse by study phase ([2]; Study #2, Open-label (over 40 weeks)): 7.5% | Change from Baseline LS Mean: Brief Assessment of Cognition in Schizophrenia Total Score ([3]; 32 mg QD): 23.8 | Change from Baseline LS Mean: Brief Assessment of Cognition in Schizophrenia Total Verbal Fluency ([3]; 32 mg QD): 5.76 | Effect Size vs Placebo: Brief Assessment of Cognition in Schizophrenia Total Score ([3]; 32 mg QD): 0.43 | Effect Size vs Placebo: Total Verbal Fluency ([3]; 32 mg QD): 0.51 | Change from Baseline LS Mean: Brief Assessment of Cognition in Schizophrenia Total Score ([3]; 64 mg QD): 14.9 | Change from Baseline LS Mean: Brief Assessment of Cognition in Schizophrenia Total Verbal Fluency ([3]; 64 mg QD): 4.37 | Effect Size vs Placebo: Brief Assessment of Cognition in Schizophrenia Total Score ([3]; 64 mg QD): 0.12 | Effect Size vs Placebo: Total Verbal Fluency ([3]; 64 mg QD): 0.36 | Change from Baseline LS Mean: Calgary Depression Scale for Schizophrenia ([4]; 32 mg QD): −0.2 | Effect Size (Cohen's d) vs Placebo: Calgary Depression Scale for Schizophrenia ([4]; 32 mg QD): 0.21 | Change from Baseline LS Mean: Calgary Depression Scale for Schizophrenia ([4]; 64 mg QD): −0.1 | Effect Size (Cohen's d) vs Placebo: Calgary Depression Scale for Schizophrenia ([4]; 64 mg QD): 0.14
